Test systems include HOP-62 NSCLC; SF-539 CNS; SW-620 colon; MDA-MB-231 breast; OVCAR-8 ovarian; A498 renal; HOP-92 NSCLC; MCF7 breast.
Holding throughout (experiment): growth of human tumour cells (NCI), 48 h

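All cell lines were grown in 96-well plates and treated with compound for 48 hours. The concentration for 50% growth inhibition is given as GI50. TGI denotes the concentration required for complete inhibition of growth.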

For `CCN(CC)CCOc1ccc(/C(=C(\C)Cc2ccc(OC)cc2)c2ccc(O)cc2)cc1`, the GI50 in the assay with HOP-62 NSCLC was 1.89 µM; with SF-539 CNS, 1.75 µM; with SW-620 colon, 1.7 µM; in the assay on MDA-MB-231 breast, 1.71 µM; in the assay with OVCAR-8 ovarian, 2.12 µM; in the assay with A498 renal, 1.38 µM. For the same compound, the GI50 in the assay on HOP-92 NSCLC was 0.588 µM; in the assay on MCF7 breast, 0.145 µM. Moreover, the TGI stood at 3.81 µM with HOP-62 NSCLC; 3.24 µM in the assay with SF-539 CNS; 3.37 µM with SW-620 colon; 3.26 µM in the assay with MDA-MB-231 breast; 5.14 µM in the assay with OVCAR-8 ovarian; 4.81 µM with A498 renal. Also, the TGI amounted to 2.61 µM in the assay on HOP-92 NSCLC and 2.3 µM in the assay with MCF7 breast.
As to `Cc1cc2c3c(nc4ccccc42)C(=O)c2cccnc2-c3n1`, the GI50 was 0.316 µM with HOP-62 NSCLC; 0.495 µM with SF-539 CNS; 0.17 µM with SW-620 colon; 0.644 µM in the assay with MDA-MB-231 breast; 0.453 µM with OVCAR-8 ovarian; 0.966 µM in the assay on A498 renal. Besides, the figures for the GI50 in the assay on HOP-92 NSCLC and in the assay with MCF7 breast were 0.941 µM and 0.0212 µM, respectively. Besides, the TGI with HOP-62 NSCLC is 2.23 µM; with SF-539 CNS it was 2.21 µM; with SW-620 colon it was 1.01 µM; with MDA-MB-231 breast it was 5.56 µM; with A498 renal it was 4.12 µM; with HOP-92 NSCLC, 8.52 µM. Besides, the TGI in the assay with MCF7 breast is 0.156 µM.
Take `COC(=O)COc1ccccc1/C=C1/N=C(c2ccccc2)N(c2c(C)n(C)n(-c3ccccc3)c2=O)C1=O`: the GI50 in the assay on HOP-62 NSCLC, with SF-539 CNS, with SW-620 colon, with MDA-MB-231 breast, in the assay on OVCAR-8 ovarian and in the assay on A498 renal was greater than 100 µM throughout. Also, the GI50 in the assay on HOP-92 NSCLC was greater than 100 µM; with MCF7 breast, 43.4 µM. Further, the TGI in the assay with HOP-62 NSCLC, in the assay with SF-539 CNS, with SW-620 colon, in the assay with MDA-MB-231 breast, with OVCAR-8 ovarian and in the assay on A498 renal was greater than 100 µM in each case. Also, the TGI in the assay on HOP-92 NSCLC and with MCF7 breast was greater than 100 µM each time.
On to `CCNCCS(=O)(=O)NC[C@@]1(c2ccccc2)SC(NC(=O)C(C)(C)C)=NN1C(=O)C(C)(C)C`, for which the GI50 in the assay with HOP-62 NSCLC is 0.0353 µM; with SF-539 CNS, less than 0.01 µM; in the assay with SW-620 colon, less than 0.01 µM; in the assay with MDA-MB-231 breast it was less than 0.01 µM; in the assay on OVCAR-8 ovarian, less than 0.0117 µM; in the assay with A498 renal, less than 0.01 µM. In the assay with MCF7 breast, the GI50 is less than 0.01 µM. In addition, the TGI is greater than 100 µM in the assay on HOP-62 NSCLC; 0.768 µM in the assay on SF-539 CNS; greater than 100 µM in the assay on SW-620 colon; 28.1 µM in the assay with MDA-MB-231 breast; greater than 100 µM in the assay with OVCAR-8 ovarian; 53.4 µM in the assay on A498 renal. The TGI with HOP-92 NSCLC is greater than 82.1 µM; with MCF7 breast, greater than 100 µM.
As to `C=C(CC)C(=O)c1ccc(OCC(=O)O)c(Cl)c1Cl`, the TGI in the assay on HOP-62 NSCLC was greater than 56 µM; in the assay on SF-539 CNS, 24.4 µM; in the assay on SW-620 colon, 34.2 µM; in the assay with MDA-MB-231 breast, 34.6 µM; in the assay on OVCAR-8 ovarian, 37.2 µM; with A498 renal, greater than 100 µM. The values for the TGI in the assay with HOP-92 NSCLC and with MCF7 breast were 25.2 µM and 20.8 µM, respectively.
In the case of `O=C1NC(=NCCc2ccccc2F)S/C1=C\c1ccc2ncccc2c1`, the GI50 in the assay on HOP-62 NSCLC is 9.31 µM; in the assay on SF-539 CNS it was 5.18 µM; in the assay with SW-620 colon it was 2.73 µM; in the assay on MDA-MB-231 breast, 16.2 µM; in the assay with OVCAR-8 ovarian, 9.65 µM; in the assay with A498 renal it was 4.83 µM. For the same compound, the GI50 was 7.84 µM in the assay on HOP-92 NSCLC and 1.68 µM in the assay with MCF7 breast. Further, the TGI with HOP-62 NSCLC is greater than 25 µM; in the assay with SF-539 CNS, greater than 25 µM; in the assay on SW-620 colon, greater than 25 µM; in the assay with MDA-MB-231 breast, greater than 25 µM; in the assay on OVCAR-8 ovarian it was greater than 25 µM; in the assay with A498 renal, 18.2 µM. Also, the TGI in the assay on HOP-92 NSCLC and in the assay on MCF7 breast was greater than 25 µM in each case.
On to `CC1(C)CCC2(C(=O)O)C(O)CC3(C)C(=CCC4C5(C)CCC(OC6OCC(O)C(O)C6OC6OCC(O)C(O)C6OC6OCC(O)C(OC7OC(CO)C(O)C(O)C7O)C6O)C(C)(C)C5CCC43C)C2C1` (configuration not stated), for which the TGI in the assay on HOP-62 NSCLC was greater than 100 µM; in the assay with SF-539 CNS it was greater than 100 µM; in the assay on SW-620 colon it was greater than 100 µM; in the assay on MDA-MB-231 breast it was greater than 100 µM; with OVCAR-8 ovarian, greater than 100 µM; with A498 renal it was 59 µM. The TGI in the assay with HOP-92 NSCLC was 82.7 µM; in the assay on MCF7 breast it was greater than 100 µM.
Take `C/C(=N\O)C1CC(CC(=O)O)C1(C)C` (configuration not stated): the TGI in the assay with HOP-62 NSCLC, in the assay with SF-539 CNS, with SW-620 colon, in the assay with MDA-MB-231 breast, in the assay with OVCAR-8 ovarian and in the assay with A498 renal was greater than 100 µM each time. Further, the TGI in the assay with HOP-92 NSCLC and in the assay on MCF7 breast was greater than 100 µM in each case.
For `O=C(O)c1cc(-c2ccc(-c3ccccc3)cc2)nc2cc3ccccc3cc12`, the TGI in the assay with HOP-62 NSCLC, in the assay on SF-539 CNS, in the assay on SW-620 colon, in the assay with MDA-MB-231 breast, in the assay with OVCAR-8 ovarian and in the assay with A498 renal was greater than 100 µM throughout. The TGI is 82.2 µM in the assay with HOP-92 NSCLC and greater than 100 µM in the assay on MCF7 breast.
With `Cn1ccc(S(=O)(=O)N2CCC[C@H](Nc3nccc(-c4c(-c5cccc(O)c5)nc5occn45)n3)C2)n1`, the GI50 in the assay with HOP-62 NSCLC was 31 µM; in the assay with SF-539 CNS, 17 µM; with SW-620 colon, 15.9 µM; in the assay with MDA-MB-231 breast, 6.23 µM; in the assay on OVCAR-8 ovarian, 18.9 µM; with A498 renal, 6.8 µM. Besides, the GI50 was 7.64 µM in the assay with HOP-92 NSCLC and 12.8 µM in the assay on MCF7 breast. Moreover, the TGI is greater than 100 µM in the assay on HOP-62 NSCLC; 59.2 µM with SF-539 CNS; greater than 64.2 µM in the assay on SW-620 colon; greater than 66.6 µM in the assay on MDA-MB-231 breast; greater than 100 µM with OVCAR-8 ovarian; 26.1 µM in the assay with A498 renal. The values for the TGI in the assay on HOP-92 NSCLC and in the assay with MCF7 breast were 52.9 µM and 55.3 µM, respectively.
As for `CCCCNC(=O)CC1=C(C)/C(=C/c2[nH]c(-c3ccc[nH]3)cc2OC)N=C1C`, the GI50 is 2.5 µM in the assay with HOP-62 NSCLC; 2.75 µM in the assay with SF-539 CNS; 3.23 µM with SW-620 colon; 1.48 µM with MDA-MB-231 breast; 3.44 µM in the assay with OVCAR-8 ovarian; 2.54 µM in the assay on A498 renal. Further, the GI50 in the assay on HOP-92 NSCLC was 2.17 µM; in the assay with MCF7 breast, 2.7 µM. Also, the TGI in the assay with HOP-62 NSCLC is 9.76 µM; in the assay with SF-539 CNS, 9.31 µM; with SW-620 colon, 13.9 µM; with MDA-MB-231 breast, 8.04 µM; with OVCAR-8 ovarian, 11.1 µM; in the assay on A498 renal it was 7.43 µM. The TGI in the assay on HOP-92 NSCLC worked out at 7.09 µM; in the assay with MCF7 breast, 9.39 µM.

For the origin of these results see PubChem BioAssay (NCI).
